Source: patent publication US8470889B2 (TRT Pharma Inc., priority 2008, dated 2013)

System: NF-κB-dependent luciferase activity induced by expression of IKKi, TBK1, IKKb and p65
Test: NF-κB-dependent luciferase activity in HEK293 cells
Assay type: cell-based
Conditions: 24 h, FIG. 11A-C
Procedure: Compound 10 inhibits IKKβ, IKKε and TBK1 and suppresses NF-κB activation. […] HEK293 cells were transiently transfected with NF-κB-Luc or ISRE-Luc, co-transfected with plasmid encoding IKKi, TBK1, IKKb, p65 or IRF3 (5D), using Lipofectamine™ 2000 reagent (Invitrogen). The transfected cells were treated with DMSO vehicle and test compounds at designated doses for 24 h. Luciferase activity was evaluated using Dual Luciferase Assay System (Promega) and expressed as fold of induction related to the basal level of the reporter gene after normalization with cotransfected Renilla relative light units.
Now referring to FIG. 18, the impact of compounds 10, and SC345, SC346 and SC347 on the NF-κB-dependent luciferase activity induced by expression of TBK1 and IKKβ. HEK293 cells were transiently transfected with NF-κB-Luc, co-transfected with plasmid encoding TBK1 or IKKβ, using Lipofectamine™ 2000 reagent (Invitrogen). The transfected cells were treated with DMSO vehicle and test compounds at 2.5 μM for 24 h. Luciferase activity was evaluated using Dual Luciferase Assay System (Promega) and expressed as fold of induction related to the basal level of the reporter gene after normalization with cotransfected Renilla relative light units.

SMILES: CC1(C)CCC(O)C=C1/C=C/C(=O)/C=C/c1csc2ccccc12 (stereo not shown) [Compound B92]
- NF-κB-dependent luciferase activity induced by expression of IKKi, TBK1, IKKb and p65: potent effects
